The values below come from patent US5494790A, “α-3 sialyltransferase” (Kyowa Hakko Kogyo Co., Ltd., priority 1991, dated 1996).

Experiment [1] has as its system α2→3 Sialyltransferase encoded in the plasmid pAMoPRSAL-35F (fused protein with the IgG-binding region of Staphylococcus aureus protein A). Briefly: Sialyltransferase activity on IgG Sepharose, HPLC of pyridylaminated sugar chain substrates (Table 1). In kind it is biochemical, human. The settings on record: for α2→3 Sialyltransferase activity, pAMoPRSAL-35F, pmol: 0.1 mM substrate, 5 μl IgG Sepharose, 5 mM CMP-sialic acid, 37° C., 2 hours; for acceptance as substrate by the α2→3 sialyltransferase (in words): IgG Sepharose from Namalwa cells having pAMoPRSAL-35F; for α2→3 Sialyltransferase activity, pAMoPRSAL-35F, Relative activity: activity to the substrate LNnT taken as 100.

Experiment [2] has as its target T1, α2→3 sialyltransferase encoded in the plasmid pAMoPRSAW17-31F (fused protein with the IgG-binding region of Staphylococcus aureus protein A) (Homo sapiens, UniProt Q11206).
T1 construct: from 31st Phe to 329th Phe; made in house
T1 sequence (Q11206 35-333): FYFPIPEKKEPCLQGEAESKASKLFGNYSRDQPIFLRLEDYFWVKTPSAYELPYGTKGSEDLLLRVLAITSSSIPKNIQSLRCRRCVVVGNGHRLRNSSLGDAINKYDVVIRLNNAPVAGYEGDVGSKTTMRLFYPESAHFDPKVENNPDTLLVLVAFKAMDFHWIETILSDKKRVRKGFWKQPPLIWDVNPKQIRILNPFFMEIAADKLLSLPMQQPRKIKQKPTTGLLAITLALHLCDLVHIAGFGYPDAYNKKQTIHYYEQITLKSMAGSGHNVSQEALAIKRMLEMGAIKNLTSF
Briefly: Sialyltransferase activity on IgG Sepharose, HPLC of pyridylaminated sugar chain substrates (Table 2). It counts as biochemical. The settings on record: for α2→3 Sialyltransferase activity, pAMoPRSAW17-31F, pmol: 0.1 mM substrate, 5 μl IgG Sepharose, 5 mM CMP-sialic acid, 37° C., 2 hours; for acceptance as substrate by the α2→3 sialyltransferase (in words): IgG Sepharose from Namalwa cells having pAMoPRSAW17-31F; for α2→3 Sialyltransferase activity, pAMoPRSAW17-31F, Relative activity: activity to the substrate LNnT taken as 100.

For experiment [3], the target named is T2, known α2→3 sialyltransferase (Rattus norvegicus, UniProt Q02734).
T2 sequence (Q02734 1-374): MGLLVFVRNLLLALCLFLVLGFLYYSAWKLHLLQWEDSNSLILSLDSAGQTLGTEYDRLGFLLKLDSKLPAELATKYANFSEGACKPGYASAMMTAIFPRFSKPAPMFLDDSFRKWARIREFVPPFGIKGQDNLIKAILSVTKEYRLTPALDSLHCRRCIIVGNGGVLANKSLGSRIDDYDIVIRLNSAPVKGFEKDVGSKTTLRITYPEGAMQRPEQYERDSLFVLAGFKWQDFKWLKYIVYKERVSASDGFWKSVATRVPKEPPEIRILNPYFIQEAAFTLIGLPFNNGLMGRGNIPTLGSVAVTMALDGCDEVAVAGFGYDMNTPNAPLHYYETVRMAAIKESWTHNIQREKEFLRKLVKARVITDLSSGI
The following applies: activity to the substrate LNT taken as 100; cited from earlier work.

For the compound `CC(=O)N[C@H]1[C@H](O[C@H]2[C@@H](O)[C@@H](CO)O[C@@H](O[C@H]3[C@H](O)[C@@H](O)C(O)O[C@@H]3CO)[C@@H]2O)O[C@H](CO)[C@@H](O)[C@@H]1O[C@@H]1O[C@H](CO)[C@H](O)[C@H](O)[C@H]1O` (some centres unmarked) [LNT, Galβ1-3GlcNAcβ1-3Galβ1-4Glc], in experiment [1], the “α2→3 Sialyltransferase activity, pAMoPRSAL-35F, pmol” value was 23.8 pmol; the “acceptance as substrate by the α2→3 sialyltransferase (in words)” value (from here on “acceptance as substrate”) is given as “can take not only LNnT but also LNT as the substrate”; the “α2→3 Sialyltransferase activity, pAMoPRSAL-35F, Relative activity” value is on record as 46. For the same compound, in experiment [2], the “α2→3 Sialyltransferase activity, pAMoPRSAW17-31F, pmol” value is listed as 47.5 pmol; the “acceptance as substrate” value is “can take not only LNnT but also LNT as the substrate”; the “α2→3 Sialyltransferase activity, pAMoPRSAW17-31F, Relative activity” value worked out at 42. Also, in experiment [3], the “Known α2→3 ST Relative activity (Table 1)” value was 100 and the “Known α2→3 ST Relative activity (Table 2)” value is recorded as 100.
For `CC(=O)N[C@H]1[C@H](O[C@H]2[C@@H](O)[C@@H](CO)O[C@@H](O[C@H]3[C@H](O)[C@@H](O)C(O)O[C@@H]3CO)[C@@H]2O)O[C@H](CO)[C@@H](O[C@@H]2O[C@H](CO)[C@H](O)[C@H](O)[C@H]2O)[C@@H]1O` (some centres unmarked) [LNnT, Galβ1-4GlcNAcβ1-3Galβ1-4Glc], in experiment [1], the “α2→3 Sialyltransferase activity, pAMoPRSAL-35F, pmol” value is given as 51.3 pmol; the “acceptance as substrate” value is on record as “can take not only LNnT but also LNT as the substrate”; the “α2→3 Sialyltransferase activity, pAMoPRSAL-35F, Relative activity” value came to 100. In experiment [2], the “α2→3 Sialyltransferase activity, pAMoPRSAW17-31F, pmol” value is on record as 113.8 pmol; the “acceptance as substrate” value is recorded as “can take not only LNnT but also LNT as the substrate”; the “α2→3 Sialyltransferase activity, pAMoPRSAW17-31F, Relative activity” value worked out at 100. In experiment [3], the “Known α2→3 ST Relative activity (Table 1)” value is 6 and the “Known α2→3 ST Relative activity (Table 2)” value is on record as 6.
With `CC(=O)N[C@H]1[C@H](O[C@H]2[C@@H](O)[C@@H](CO)O[C@@H](O[C@H]3[C@H](O)[C@@H](O)C(O)O[C@@H]3CO)[C@@H]2O)O[C@H](CO)[C@@H](O[C@@H]2O[C@H](CO)[C@H](O)[C@H](O)[C@H]2O)[C@@H]1O[C@@H]1O[C@@H](C)[C@@H](O)[C@@H](O)[C@@H]1O` (some centres unmarked) [lacto-N-fucopentaose III], in experiment [1], the “α2→3 Sialyltransferase activity, pAMoPRSAL-35F, pmol” value was determined as 8.1 pmol; the “acceptance as substrate” value was “can take LNFP-III as the substrate”; the “α2→3 Sialyltransferase activity, pAMoPRSAL-35F, Relative activity” value worked out at 16. In experiment [2], the “α2→3 Sialyltransferase activity, pAMoPRSAW17-31F, pmol” value turned out to be 9.4 pmol; the “acceptance as substrate” value was “can take LNFP-III as the substrate”; the “α2→3 Sialyltransferase activity, pAMoPRSAW17-31F, Relative activity” value is listed as 8.
For `CC(=O)N[C@H]1[C@H](O[C@H]2[C@@H](O)[C@@H](CO)O[C@@H](O[C@H]3[C@H](O[C@@H]4O[C@@H](C)[C@@H](O)[C@@H](O)[C@@H]4O)[C@@H](O)C(O)O[C@@H]3CO)[C@@H]2O)O[C@H](CO)[C@@H](O)[C@@H]1O[C@@H]1O[C@H](CO)[C@H](O)[C@H](O)[C@H]1O` (some centres unmarked) [lacto-N-fucopentaose V], in experiment [1], the “α2→3 Sialyltransferase activity, pAMoPRSAL-35F, pmol” value is 28.8 pmol and the “α2→3 Sialyltransferase activity, pAMoPRSAL-35F, Relative activity” value worked out at 56. Also, in experiment [2], the “α2→3 Sialyltransferase activity, pAMoPRSAW17-31F, pmol” value is on record as 36.3 pmol and the “α2→3 Sialyltransferase activity, pAMoPRSAW17-31F, Relative activity” value is recorded as 32.
